1 substance from publication PMC8011784, “Chronic peptide-based GIP receptor inhibition exhibits modest glucose metabolic changes in mice when administered either alone or combined with GLP-1 agonism” (PLoS ONE, 2021) can be followed below.

The test concerns DIO mice. The test is described as follows: Chronic GIPA-2 study: circulating lipids, liver and fat depots in DIO mice. It counts as in vivo, mouse. Particulars: day 28, n = 10. The method, then: For studying the chronic effects of GIPA-2, male C57BL/6JRj mice (n = 40) were fed a HFD (SSNIFF® diet #12492) for 43 weeks. DIO mice were randomized (n = 10 per group) based on baseline blood glucose and body weight. Liraglutide was dissolved in PBS plus 0.1% BSA (Vehicle1) and GIPA-2 in PBS (vehicle 2). Mice received one of the following four treatments daily for 28 days while still maintained on HFD: (1) vehicle 1 (SC) and vehicle 2 (SC); (2) 0.2 mg/kg liraglutide (SC) and vehicle 2; (3) vehicle 1 (SC) and 10 mg/kg GIPA-2 (SC); and (4) 0.2 mg/kg liraglutide (SC) plus 10 mg/kg GIPA-2 (SC). GIPA-2 dose levels were selected based on doses shown to sufficiently antagonize insulinotropic actions of exogenous GIP in acute IPGTT studies (Fig 1J) adjusted for single daily dosing over the 4-week treatment period. Fasted (4 hrs) blood glucose and insulin were measured on study day -4, 10 and 26. An OGTT was performed on day 17. On the day of the OGTT the fasted animals (4 hrs) received their daily doses of vehicles, liraglutide and GIPA-2 one hour before receiving a glucose bolus (2 g/kg). Blood glucose was measured before their daily dosing and at 0, 15, 30 60, 120, 180 and 240 min after glucose administration. An insulin tolerance test (ITT) was performed on day 24. Fasting (4 hrs) mice received their daily doses of vehicles, liraglutide and GIPA-2 one hour before receiving insulin (0.5 U/kg, intraperitoneal injection). Blood glucose was measured before their daily dosing and at 0, 15, 30 60, 120, 180 min after glucose administration. Similar measurements were performed as in the GIPA-1 study. […]
Fasting blood glucose was measured using a BIOSEN c-Line glucose meter (EKF-Diagnostics), insulin was measured using the Meso Scale Diagnostics platform, TG and TC were measured using commercial kits (Roche Diagnostics) on the Cobas C-501 autoanalyzer (Roche), and FFA levels were measured using a Wako Chemicals kit on the Cobas C-501 autoanalyzer, all according to the manufacturers’ instructions. Homeostatic model assessment of insulin resistance (HOMA-IR) was calculated using the following equation: [fasting serum glucose (mmol/L) × fasting serum insulin (pmol/L) / 22.5] to assess insulin resistance.
Fig 4 The effect of GIPR antagonism alone or in combination with liraglutide on lipid homeostasis in DIO mice. […] Statistical analysis was calculated using one-way ANOVA with Dunnett’s post-hoc test. *: p< 0.05, **: p < 0.01, ***: p < 0.001, ****: p<0.0001 compared to vehicle.
Supplementary file pone.0249239.s002.tif: S2 Fig The effect of GIPR antagonists alone or in combination with liraglutide on lipid homeostasis in DIO mice. […] Statistical analysis was calculated using one-way ANOVA with Dunnett’s post-hoc test. *: p< 0.05, **: p < 0.01, ***: p < 0.001, ****: p<0.0001 compared to vehicle. […]

As for liraglutide, the “circulating total cholesterol (TC)” value is “significantly reduced circulating TC and liver TG concentrations”; the “liver TG” value is “significantly reduced circulating TC and liver TG concentrations”; the “plasma FFA” value is reported as “no effect on either plasma TG or concentrations of circulating FFA”; the “plasma TG” value is “no effect on either plasma TG or concentrations of circulating FFA”.
